Experiment in all cases: SelectScreen Kinase Profiling, single point inhibition and IC50 for off-target kinases
Common to all, as to format: biochemical

For test [1], the target named is off-target kinases (Homo sapiens, UniProt P07949). Particulars: RET, ATP Km app, ZLYTE.
For test [2], the target named is off-target kinases (Homo sapiens, UniProt P10721, T670E). Particulars: KIT T670E (mutant), LanthaScreen Binding. (In general: In TR-FRET formats the signal depends on donor and acceptor labels being close together.)
The target of test [3] is T1, off-target kinases (Homo sapiens, UniProt P33981).
T1 sequence (P33981 1-857): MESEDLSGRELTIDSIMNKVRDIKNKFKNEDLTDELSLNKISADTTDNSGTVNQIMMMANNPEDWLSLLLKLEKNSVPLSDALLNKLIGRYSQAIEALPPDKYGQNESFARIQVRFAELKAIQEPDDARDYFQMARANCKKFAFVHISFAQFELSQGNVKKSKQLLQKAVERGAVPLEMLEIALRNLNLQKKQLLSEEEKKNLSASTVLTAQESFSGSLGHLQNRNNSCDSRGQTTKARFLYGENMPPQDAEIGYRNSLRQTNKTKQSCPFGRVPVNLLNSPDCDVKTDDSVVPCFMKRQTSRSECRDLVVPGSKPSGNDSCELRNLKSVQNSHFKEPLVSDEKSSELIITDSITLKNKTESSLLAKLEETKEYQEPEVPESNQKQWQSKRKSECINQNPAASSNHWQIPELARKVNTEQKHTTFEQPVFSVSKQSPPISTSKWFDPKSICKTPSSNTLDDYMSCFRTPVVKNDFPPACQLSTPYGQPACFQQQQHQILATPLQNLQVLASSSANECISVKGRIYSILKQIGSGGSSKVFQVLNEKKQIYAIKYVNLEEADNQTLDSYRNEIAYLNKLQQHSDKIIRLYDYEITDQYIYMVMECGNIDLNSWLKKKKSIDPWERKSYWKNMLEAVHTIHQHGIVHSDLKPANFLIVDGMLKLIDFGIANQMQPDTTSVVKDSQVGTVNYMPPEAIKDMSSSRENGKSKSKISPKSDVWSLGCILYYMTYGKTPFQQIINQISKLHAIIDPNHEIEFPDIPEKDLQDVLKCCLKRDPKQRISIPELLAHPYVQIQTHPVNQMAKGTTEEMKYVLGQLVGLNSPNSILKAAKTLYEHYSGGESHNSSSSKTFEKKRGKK
Particulars: TTK, LanthaScreen Binding.

Test [4] addresses off-target kinases (Homo sapiens, UniProt Q9Y5S2). Particulars: CDC42 BPB (MRCKB), ZLYTE, ATP Km app.

The record followed here is patent US11572590B2, “Methods for evaluating tumor cell spheroids using 3D microfluidic cell culture device” (Dana-Farber Cancer Institute, Inc., priority 2017, dated 2023).

By inhibition is commonly meant the drop in the measured response relative to a control, in per cent.

SMILES strings stand for the structures. Like-named read-outs stand apart in the source and are kept apart here.

Chain of off-target kinases (Homo sapiens, UniProt Q9Y5S2) (Q9Y5S2 whole entry): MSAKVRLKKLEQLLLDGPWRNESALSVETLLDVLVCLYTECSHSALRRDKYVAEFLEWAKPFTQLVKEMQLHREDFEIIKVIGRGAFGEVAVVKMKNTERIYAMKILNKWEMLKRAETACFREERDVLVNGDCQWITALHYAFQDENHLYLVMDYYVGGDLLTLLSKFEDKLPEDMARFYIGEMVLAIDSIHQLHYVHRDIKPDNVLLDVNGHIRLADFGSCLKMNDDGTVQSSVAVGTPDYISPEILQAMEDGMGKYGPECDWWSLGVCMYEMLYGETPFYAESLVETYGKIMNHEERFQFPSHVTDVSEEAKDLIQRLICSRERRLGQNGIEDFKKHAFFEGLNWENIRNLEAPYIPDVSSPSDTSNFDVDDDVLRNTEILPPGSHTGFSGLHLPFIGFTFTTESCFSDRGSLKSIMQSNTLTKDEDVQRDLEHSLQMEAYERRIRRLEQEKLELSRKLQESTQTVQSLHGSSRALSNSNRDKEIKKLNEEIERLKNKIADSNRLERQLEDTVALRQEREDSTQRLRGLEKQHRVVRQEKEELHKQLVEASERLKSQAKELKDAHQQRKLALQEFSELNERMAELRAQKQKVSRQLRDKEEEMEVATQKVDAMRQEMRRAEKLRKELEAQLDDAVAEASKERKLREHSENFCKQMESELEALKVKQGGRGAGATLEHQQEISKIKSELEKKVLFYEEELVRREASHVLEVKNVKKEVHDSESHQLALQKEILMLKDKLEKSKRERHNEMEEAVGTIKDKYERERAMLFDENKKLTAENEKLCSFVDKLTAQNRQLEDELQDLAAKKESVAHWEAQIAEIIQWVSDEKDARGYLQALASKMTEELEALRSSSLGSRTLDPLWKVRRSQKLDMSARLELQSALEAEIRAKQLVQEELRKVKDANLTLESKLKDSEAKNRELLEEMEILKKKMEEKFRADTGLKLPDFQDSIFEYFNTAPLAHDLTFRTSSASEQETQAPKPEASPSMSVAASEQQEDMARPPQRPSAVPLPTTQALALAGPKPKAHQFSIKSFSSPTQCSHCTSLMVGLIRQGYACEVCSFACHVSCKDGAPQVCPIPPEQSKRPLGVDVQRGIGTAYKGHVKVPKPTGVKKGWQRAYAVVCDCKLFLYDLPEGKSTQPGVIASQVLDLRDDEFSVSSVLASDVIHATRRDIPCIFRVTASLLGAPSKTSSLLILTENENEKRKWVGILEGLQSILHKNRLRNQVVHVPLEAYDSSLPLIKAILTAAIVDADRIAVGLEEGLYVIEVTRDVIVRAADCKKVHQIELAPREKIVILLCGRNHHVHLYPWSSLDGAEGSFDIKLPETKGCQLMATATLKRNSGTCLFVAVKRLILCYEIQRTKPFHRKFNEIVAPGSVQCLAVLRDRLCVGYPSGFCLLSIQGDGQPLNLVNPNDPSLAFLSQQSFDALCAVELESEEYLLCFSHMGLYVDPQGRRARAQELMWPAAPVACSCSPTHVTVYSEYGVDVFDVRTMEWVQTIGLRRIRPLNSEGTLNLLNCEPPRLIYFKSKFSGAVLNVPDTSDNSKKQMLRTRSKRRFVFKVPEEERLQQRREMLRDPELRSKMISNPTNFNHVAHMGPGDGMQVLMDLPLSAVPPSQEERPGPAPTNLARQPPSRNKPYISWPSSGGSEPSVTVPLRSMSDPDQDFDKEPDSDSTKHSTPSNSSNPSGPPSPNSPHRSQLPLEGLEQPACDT
Chain of off-target kinases (Homo sapiens, UniProt P07949) (P07949 29-1114): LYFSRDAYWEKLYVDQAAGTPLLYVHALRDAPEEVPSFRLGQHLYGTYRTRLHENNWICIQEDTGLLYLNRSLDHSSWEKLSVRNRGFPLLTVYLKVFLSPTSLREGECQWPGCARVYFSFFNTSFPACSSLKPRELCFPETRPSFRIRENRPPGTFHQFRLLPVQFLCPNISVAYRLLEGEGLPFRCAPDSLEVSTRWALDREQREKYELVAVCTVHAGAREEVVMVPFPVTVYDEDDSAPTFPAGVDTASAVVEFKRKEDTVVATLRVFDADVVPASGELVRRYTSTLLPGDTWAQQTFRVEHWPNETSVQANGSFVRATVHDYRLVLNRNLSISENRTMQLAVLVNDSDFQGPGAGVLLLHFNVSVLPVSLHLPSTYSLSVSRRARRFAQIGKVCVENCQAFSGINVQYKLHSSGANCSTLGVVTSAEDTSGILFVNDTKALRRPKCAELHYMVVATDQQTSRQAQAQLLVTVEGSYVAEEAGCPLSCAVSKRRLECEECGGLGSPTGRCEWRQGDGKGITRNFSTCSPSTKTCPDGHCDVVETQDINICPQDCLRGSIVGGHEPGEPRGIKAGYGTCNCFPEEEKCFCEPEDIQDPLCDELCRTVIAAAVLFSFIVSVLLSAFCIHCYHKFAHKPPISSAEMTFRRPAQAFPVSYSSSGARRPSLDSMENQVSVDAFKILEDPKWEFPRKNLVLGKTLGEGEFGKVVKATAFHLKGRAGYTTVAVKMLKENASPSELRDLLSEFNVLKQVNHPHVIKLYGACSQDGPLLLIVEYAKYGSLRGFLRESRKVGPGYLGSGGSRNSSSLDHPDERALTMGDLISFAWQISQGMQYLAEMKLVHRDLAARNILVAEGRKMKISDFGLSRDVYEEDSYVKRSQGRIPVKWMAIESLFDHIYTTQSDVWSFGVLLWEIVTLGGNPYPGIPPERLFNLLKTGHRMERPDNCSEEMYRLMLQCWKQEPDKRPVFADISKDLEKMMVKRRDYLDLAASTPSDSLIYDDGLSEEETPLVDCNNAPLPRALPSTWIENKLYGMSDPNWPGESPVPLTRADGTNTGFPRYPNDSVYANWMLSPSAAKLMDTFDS
Chain of off-target kinases (Homo sapiens, UniProt P10721, T670E) (P10721 26-976 T670E): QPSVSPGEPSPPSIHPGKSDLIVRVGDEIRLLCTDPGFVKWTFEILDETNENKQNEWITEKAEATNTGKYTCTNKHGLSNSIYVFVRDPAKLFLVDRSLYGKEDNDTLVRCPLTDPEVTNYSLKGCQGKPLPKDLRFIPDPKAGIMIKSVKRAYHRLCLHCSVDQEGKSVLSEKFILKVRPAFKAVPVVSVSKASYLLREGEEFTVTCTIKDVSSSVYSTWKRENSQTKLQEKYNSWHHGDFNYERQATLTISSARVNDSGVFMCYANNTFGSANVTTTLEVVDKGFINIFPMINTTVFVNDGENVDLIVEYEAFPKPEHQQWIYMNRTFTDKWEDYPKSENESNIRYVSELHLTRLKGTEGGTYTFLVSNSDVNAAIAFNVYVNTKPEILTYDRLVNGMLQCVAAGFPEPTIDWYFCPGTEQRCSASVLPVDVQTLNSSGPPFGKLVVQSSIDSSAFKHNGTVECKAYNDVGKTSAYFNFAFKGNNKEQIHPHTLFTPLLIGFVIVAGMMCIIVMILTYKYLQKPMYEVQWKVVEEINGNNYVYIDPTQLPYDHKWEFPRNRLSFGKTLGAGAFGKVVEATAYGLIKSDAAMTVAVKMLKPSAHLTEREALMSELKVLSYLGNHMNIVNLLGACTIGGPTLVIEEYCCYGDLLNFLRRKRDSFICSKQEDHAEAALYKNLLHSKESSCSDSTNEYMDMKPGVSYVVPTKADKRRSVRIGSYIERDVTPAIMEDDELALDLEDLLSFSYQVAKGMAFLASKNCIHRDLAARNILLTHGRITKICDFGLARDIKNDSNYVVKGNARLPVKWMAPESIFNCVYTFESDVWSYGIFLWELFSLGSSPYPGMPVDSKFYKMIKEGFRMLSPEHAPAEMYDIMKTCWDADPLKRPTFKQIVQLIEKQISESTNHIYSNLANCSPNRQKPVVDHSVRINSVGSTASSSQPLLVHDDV

Consider `N#Cc1cc(-c2ncnc(Nc3ccc(N4CCN(C5COC5)CC4)cc3)n2)ccc1OC1CCOCC1` [Compound 1, 5-(4-((4-(4-(oxetan-3-yl)piperazin-1-yl)phenyl)amino)-1,3,5-triazin-2-yl)-2-((tetrahydro-2H-pyran-4-yl)oxy)benzonitrile], for which the inhibition was found to be 46% on off-target kinases [1] (read-out: % Inhibition 1); 42% at off-target kinases [1] (read-out: % Inhibition 2); 44% at off-target kinases [1] (read-out: % Inhibition Avg); 2% at off-target kinases [2] (read-out: % Inhibition 1); 2% at off-target kinases [2] (read-out: % Inhibition 2); 2% at off-target kinases [2] (read-out: % Inhibition Avg). The inhibition turned out to be 33% on off-target kinases [3] (read-out: % Inhibition 1); 34% on off-target kinases [3] (read-out: % Inhibition 2); 33% on off-target kinases [3] (read-out: % Inhibition Avg); 6% at off-target kinases [4] (read-out: % Inhibition 1); 13% on off-target kinases [4] (read-out: % Inhibition 2); 10% on off-target kinases [4] (read-out: % Inhibition Avg).
